Data reported in BindingDB's records for doi:10.1021/jm00126a018 (Amherst College, 1989).

Biological target: Chymotrypsinogen A (Bos taurus) (UniProt P00766)
Test: Inhibition of chymotrypsin-catalyzed hydrolysis of BzTyr p-nitroanilide by compound at pH 5

Ki: > 8 mM
SMILES: CC(=O)N[C@@H](C)C(=O)NN=CCNC(=O)c1ccccc1
